Results on 13 molecules are retold here after ChEMBL document CHEMBL2384904, “Discovery of potent, selective, bioavailable phosphodiesterase 2 (PDE2) inhibitors active in an osteoarthritis pain model, part I: transformation of selective pyrazolodiazepinone phosphodiesterase 4 (PDE4) inhibitors into selective PDE2 inhibitors” (Bioorg Med Chem Lett, 2013).

Data set [1] deals with Phosphodiesterase 4 (Homo sapiens, UniProt P27815+Q08499+Q07343+Q08493). Kind of data set: Inhibition of PDE4 (unknown origin). The class given is protein assay.
A short description of data set [2]: in vitro. To be noted: human, liver microsomes.
The species named for data set [3] is Homo sapiens. Kind of data set: Selectivity ratio of IC50 for PDE4 (unknown origin) to IC50 for PDE2 (unknown origin).
For data set [4], the target named is cGMP-dependent 3',5'-cyclic phosphodiesterase (Homo sapiens, UniProt O00408). Kind of data set: Inhibition of PDE2 (unknown origin).
Data set [5] has as its target 3',5'-cyclic-AMP phosphodiesterase 4B (Homo sapiens, UniProt Q07343). Kind of data set: Inhibition of PDE4B (unknown origin).
The species entered for data set [6] is Homo sapiens. Kind of data set: Selectivity ratio of IC50 for PDE4B (unknown origin) to IC50 for PDE2 (unknown origin).
Data set [7] addresses Phosphodiesterase 3 (Homo sapiens) (UniProt Q14432+Q13370). Kind of data set: Inhibition of PDE3 (unknown origin). The class given is protein assay.
The target in data set [8] is Dual 3',5'-cyclic-AMP and -GMP phosphodiesterase 11A (Homo sapiens) (UniProt Q9HCR9). Kind of data set: Inhibition of PDE11 (unknown origin).
Data set [9] deals with High affinity cGMP-specific 3',5'-cyclic phosphodiesterase 9A (Homo sapiens) (UniProt O76083). Kind of data set: Inhibition of PDE9 (unknown origin).
The nature of data set [10]: Bioavailability in rat. It is filed as ADME, organism-based. The following applies: in vivo.
Data set [11] is described as follows: Half life in po dosed rat. It is filed as ADME, organism-based. To be noted: in vivo.
Data set [12] deals with cGMP-specific 3',5'-cyclic phosphodiesterase (Homo sapiens) (UniProt O76074). Kind of data set: Inhibition of PDE5 (unknown origin).
Data set [13] deals with Phosphodiesterase 1 (Homo sapiens) (UniProt P54750+Q01064+Q14123). Kind of data set: Inhibition of PDE1 (unknown origin). It is filed as protein assay.
In data set [14] the target is Phosphodiesterase 8 (Homo sapiens) (UniProt O95263+O60658). Kind of data set: Inhibition of PDE8 (unknown origin). It is filed as protein assay.
Data set [15] can be described thus: Half life in iv dosed rat. It is filed as ADME, organism-based. To be noted: in vivo.
The target in data set [16] is Phosphodiesterase 6 (Homo sapiens) (UniProt Q13956+P18545+P35913+O43924+P16499+P51160). Kind of data set: Inhibition of PDE6 (unknown origin). It is filed as protein assay.
For data set [17], the target named is cAMP and cAMP-inhibited cGMP 3',5'-cyclic phosphodiesterase 10A (Homo sapiens) (UniProt Q9Y233). Kind of data set: Inhibition of PDE10 (unknown origin).
For data set [18], the target named is Phosphodiesterase 7 (Homo sapiens) (UniProt Q13946+Q9NP56). Kind of data set: Inhibition of PDE7 (unknown origin). It is filed as protein assay.

3',5'-cyclic-AMP phosphodiesterase 4B, sequence (Q07343 whole entry): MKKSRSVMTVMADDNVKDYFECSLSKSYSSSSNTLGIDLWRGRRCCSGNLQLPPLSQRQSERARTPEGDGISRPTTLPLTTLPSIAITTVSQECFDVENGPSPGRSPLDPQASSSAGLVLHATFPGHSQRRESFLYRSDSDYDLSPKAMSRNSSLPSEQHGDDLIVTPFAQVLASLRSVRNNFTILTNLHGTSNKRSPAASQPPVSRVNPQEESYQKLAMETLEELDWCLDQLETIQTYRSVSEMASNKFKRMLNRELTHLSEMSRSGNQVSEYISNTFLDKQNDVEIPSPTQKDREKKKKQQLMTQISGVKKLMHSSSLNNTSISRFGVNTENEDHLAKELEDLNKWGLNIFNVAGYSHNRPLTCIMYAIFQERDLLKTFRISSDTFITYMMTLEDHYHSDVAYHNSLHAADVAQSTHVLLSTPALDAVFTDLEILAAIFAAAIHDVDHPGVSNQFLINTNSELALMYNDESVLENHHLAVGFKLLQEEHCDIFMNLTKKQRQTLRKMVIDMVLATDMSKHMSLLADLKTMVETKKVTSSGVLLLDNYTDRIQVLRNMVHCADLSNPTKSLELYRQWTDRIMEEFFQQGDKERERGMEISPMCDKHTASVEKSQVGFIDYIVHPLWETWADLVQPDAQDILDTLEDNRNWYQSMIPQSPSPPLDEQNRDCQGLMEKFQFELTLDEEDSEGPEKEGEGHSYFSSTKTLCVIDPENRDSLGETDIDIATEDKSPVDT
cGMP-dependent 3',5'-cyclic phosphodiesterase, sequence (O00408 whole entry): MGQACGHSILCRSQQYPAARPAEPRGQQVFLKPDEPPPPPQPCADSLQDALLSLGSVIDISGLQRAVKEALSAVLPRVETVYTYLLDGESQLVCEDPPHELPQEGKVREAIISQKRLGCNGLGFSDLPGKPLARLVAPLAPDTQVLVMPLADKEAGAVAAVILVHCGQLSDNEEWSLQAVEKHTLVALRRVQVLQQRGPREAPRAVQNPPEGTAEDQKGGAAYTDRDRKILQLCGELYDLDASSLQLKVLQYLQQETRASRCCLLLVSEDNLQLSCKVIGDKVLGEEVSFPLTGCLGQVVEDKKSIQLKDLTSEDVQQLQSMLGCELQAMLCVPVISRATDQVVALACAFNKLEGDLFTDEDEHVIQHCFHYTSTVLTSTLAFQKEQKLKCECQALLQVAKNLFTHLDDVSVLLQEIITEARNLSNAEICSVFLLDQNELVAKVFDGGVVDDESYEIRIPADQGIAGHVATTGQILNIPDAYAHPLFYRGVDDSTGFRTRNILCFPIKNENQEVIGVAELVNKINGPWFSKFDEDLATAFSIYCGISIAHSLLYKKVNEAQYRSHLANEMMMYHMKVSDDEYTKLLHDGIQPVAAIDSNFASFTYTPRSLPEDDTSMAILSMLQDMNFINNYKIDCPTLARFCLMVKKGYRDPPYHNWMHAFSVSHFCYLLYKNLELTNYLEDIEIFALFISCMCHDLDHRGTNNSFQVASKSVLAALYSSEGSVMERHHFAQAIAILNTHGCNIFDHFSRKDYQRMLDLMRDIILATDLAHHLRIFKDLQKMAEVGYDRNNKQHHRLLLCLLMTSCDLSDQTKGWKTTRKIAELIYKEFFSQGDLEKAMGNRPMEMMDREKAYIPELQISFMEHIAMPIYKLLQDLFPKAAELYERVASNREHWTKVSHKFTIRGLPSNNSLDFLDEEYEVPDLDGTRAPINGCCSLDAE
Dual 3',5'-cyclic-AMP and -GMP phosphodiesterase 11A (Homo sapiens), sequence (Q9HCR9 whole entry, looked up): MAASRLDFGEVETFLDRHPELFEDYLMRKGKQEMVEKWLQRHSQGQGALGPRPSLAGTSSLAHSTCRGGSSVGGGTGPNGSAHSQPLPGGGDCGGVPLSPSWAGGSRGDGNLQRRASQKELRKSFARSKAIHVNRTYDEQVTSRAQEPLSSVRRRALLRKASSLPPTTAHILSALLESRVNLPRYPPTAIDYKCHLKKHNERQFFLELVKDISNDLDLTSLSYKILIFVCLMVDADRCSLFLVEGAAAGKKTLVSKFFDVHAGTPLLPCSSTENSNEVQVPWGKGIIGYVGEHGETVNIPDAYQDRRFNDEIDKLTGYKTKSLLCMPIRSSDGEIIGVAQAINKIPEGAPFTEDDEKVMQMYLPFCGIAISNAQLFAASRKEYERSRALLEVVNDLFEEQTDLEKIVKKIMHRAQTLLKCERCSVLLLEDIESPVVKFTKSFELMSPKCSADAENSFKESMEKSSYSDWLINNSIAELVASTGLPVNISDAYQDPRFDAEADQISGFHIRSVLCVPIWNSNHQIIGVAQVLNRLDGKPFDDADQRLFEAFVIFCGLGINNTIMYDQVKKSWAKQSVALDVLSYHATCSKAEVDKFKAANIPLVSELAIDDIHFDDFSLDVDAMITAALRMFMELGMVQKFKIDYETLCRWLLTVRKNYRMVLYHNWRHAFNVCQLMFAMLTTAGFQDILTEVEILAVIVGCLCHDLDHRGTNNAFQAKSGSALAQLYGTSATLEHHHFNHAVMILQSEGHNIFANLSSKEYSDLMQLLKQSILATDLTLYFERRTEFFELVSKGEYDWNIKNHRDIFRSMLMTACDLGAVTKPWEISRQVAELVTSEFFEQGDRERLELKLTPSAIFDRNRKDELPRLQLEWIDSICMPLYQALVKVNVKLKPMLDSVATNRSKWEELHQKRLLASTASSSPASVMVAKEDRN
High affinity cGMP-specific 3',5'-cyclic phosphodiesterase 9A (Homo sapiens), sequence (O76083 whole entry): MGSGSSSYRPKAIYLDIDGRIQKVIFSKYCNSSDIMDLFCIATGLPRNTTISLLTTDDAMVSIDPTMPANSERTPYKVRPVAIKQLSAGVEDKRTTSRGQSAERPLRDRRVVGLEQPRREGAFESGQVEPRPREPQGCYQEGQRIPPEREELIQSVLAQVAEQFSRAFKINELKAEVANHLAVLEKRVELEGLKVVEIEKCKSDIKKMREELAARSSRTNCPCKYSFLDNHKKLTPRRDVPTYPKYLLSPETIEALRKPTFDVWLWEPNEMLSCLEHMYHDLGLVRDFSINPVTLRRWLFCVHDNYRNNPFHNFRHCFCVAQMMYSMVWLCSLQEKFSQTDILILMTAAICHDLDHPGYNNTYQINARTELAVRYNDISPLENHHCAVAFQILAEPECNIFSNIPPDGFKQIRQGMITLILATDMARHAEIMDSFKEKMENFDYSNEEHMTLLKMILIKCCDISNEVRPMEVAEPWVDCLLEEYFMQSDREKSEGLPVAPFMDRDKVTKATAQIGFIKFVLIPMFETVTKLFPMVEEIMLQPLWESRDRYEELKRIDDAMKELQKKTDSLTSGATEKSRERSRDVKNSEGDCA
cAMP and cAMP-inhibited cGMP 3',5'-cyclic phosphodiesterase 10A (Homo sapiens), sequence (Q9Y233 whole entry): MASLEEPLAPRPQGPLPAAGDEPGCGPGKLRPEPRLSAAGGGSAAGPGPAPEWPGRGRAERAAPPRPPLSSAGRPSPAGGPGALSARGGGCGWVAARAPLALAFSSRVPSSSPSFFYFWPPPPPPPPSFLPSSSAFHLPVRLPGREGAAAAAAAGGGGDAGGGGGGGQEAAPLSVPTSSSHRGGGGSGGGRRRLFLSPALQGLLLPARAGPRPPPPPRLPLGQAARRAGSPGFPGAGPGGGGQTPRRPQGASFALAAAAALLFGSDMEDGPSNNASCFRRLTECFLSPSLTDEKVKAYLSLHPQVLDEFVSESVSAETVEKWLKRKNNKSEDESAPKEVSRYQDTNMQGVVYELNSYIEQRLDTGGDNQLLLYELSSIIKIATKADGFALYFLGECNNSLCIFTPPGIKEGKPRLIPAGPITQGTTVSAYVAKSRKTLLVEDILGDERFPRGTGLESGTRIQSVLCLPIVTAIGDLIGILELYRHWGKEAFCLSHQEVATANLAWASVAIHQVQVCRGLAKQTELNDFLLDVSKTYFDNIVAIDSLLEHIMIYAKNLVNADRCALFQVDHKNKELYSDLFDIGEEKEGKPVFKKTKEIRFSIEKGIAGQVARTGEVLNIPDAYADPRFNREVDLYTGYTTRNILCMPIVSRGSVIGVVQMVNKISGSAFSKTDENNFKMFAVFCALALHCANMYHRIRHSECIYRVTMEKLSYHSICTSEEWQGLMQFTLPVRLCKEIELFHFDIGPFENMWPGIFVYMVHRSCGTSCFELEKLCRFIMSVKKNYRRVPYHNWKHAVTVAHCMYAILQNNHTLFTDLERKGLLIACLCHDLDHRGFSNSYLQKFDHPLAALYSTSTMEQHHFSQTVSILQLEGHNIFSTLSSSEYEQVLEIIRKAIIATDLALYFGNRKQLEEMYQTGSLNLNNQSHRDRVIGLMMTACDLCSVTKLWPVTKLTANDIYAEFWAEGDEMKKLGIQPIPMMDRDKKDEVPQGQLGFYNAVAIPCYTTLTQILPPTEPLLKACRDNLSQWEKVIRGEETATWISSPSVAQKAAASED

Usually IC50 stands for the concentration that inhibits the measured activity by half. Low readings indicate inhibition by little substance, high ones a need for much substance. By half-life is commonly meant the time needed for the level to fall by half in the phase considered. High values mean slow decline, low ones rapid decline. `CCC(CC)c1nn(CCO)c2c1N=C(c1ccc(-n3ccnc3C)cc1)CNC2=O`: the IC50 in data set [1] was determined as 538 nM; in data set [4] it was 54 nM; in [5], 583 nM. This molecule came in with a half-life in data set [2] of 5 min. Besides, the Ratio IC50 in [3] and in data set [6] was 11 each time.
Consider `COc1ccc(Cc2nn3c([C@@H](CCc4ccccc4)[C@@H](C)O)nc(C)c3c(=O)[nH]2)cc1OO`, for which the midpoint of inhibition in data set [4], the IC50, lay at 4.7 nM.
For `CCC(CC)c1nn(CCCO)c2c1N=C(c1ccc(-n3ccnc3C)cc1)CNC2=O`, the concentration for half-maximal inhibition (IC50) in data set [1] was determined as 10800 nM; in data set [4] it was 328 nM. The half-life in data set [2] was found to be 6 min. Besides, in data set [3], the Ratio IC50 was 33.
The corresponding values for `CCC(CC)c1nn(CCO)c2c1N=C(c1ccccc1)CNC2=O` are 76 nM, 102 nM, 20 min and 0.7.
As to `CC(C)(C)c1nn(CCO)c2c1N=C(c1ccc(F)cc1)CNC2=O`, the IC50 is 31 nM in [1] and 259 nM in [4]. Also, the Ratio IC50 in data set [3] came to 0.12.
`CCC(CC)c1nn(CCCO)c2c1N=C(c1ccc(OC)c(OC)c1)CNC2=O`: the IC50 in [1] stood at 365 nM; in data set [4], 93 nM. The half-life in data set [2] was found to be 44 min. Moreover, the Ratio IC50 in [3] stood at 4.
In data set [2], `CC(C)c1nccn1-c1ccc(C2=Nc3c(C(C)(C)C)nn(CCO)c3C(=O)NC2)cc1` showed a half-life of 12 min. Besides, the values for the IC50 in data set [4] and in data set [5] were 97 nM and 330 nM, respectively. Besides, the Ratio IC50 in data set [6] was determined as 3.
In general, bioavailability refers to the share of a dose that reaches the circulation, judged against a reference dose that is usually intravenous. A low value points to little systemic uptake. As for `CCC(CC)c1nn(CC)c2c1N=C(c1ccc(C(=O)O)cc1)CNC2=O`, the INH in [7], in [8], in data set [9], in [12], in data set [13] and in data set [14] was more than 5 µM throughout. Moreover, the INH in data set [16], in data set [17] and in [18] was more than 5 µM throughout. The IC50 in [1] worked out at 1.2 nM; in [4], 840 nM. For the same molecule, in data set [10], the bioavailability came to 80%. Besides, the half-life in [11] was found to be 300 min; in [15], 114 min. Besides, the Ratio IC50 in data set [3] stood at 0.0015.
As to `CCCCCC[C@@H]([C@@H](C)O)n1cnc2c(N)ncnc21` (relative stereo) [EHNA], the IC50 in [4] worked out at 800 nM.
In data set [2], `CCC(C)(C)c1nn(CCO)c2c1N=C(c1ccc(-n3ccnc3C)cc1)CNC2=O` yielded a half-life of 7 min. The IC50 was 45 nM in [4] and 378 nM in data set [5]. The Ratio IC50 in [6] worked out at 8.
Consider `CCC(CC)c1nn(CCO)c2c1N=C(c1ccc(OC)c(OC)c1)CNC2=O`, for which the IC50 was 48 nM in [1] and 23 nM in [4]. For the same molecule, the half-life in [2] was found to be 23 min. Also, in data set [3], the Ratio IC50 was determined as 2.
In turn, `CCC(C)(C)c1nn(CCO)c2c1N=C(c1ccc(-n3cc(C)nc3C)cc1)CNC2=O` registered a half-life in data set [2] of 9 min. Further, the IC50 in data set [4] is 105 nM; in [5] it was 1950 nM. Besides, the Ratio IC50 in [6] is 19.
`CCC(CC)c1nn(CCCO)c2c1N=C(c1ccccc1)CNC2=O` gave a half-life in data set [2] of 36 min.
